Patent publication US12492173B2, “Herbicidal substituted N-tetrazolyl aryl carboxamides” (Bayer Aktiengesellschaft, priority 2019, dated 2025)

Columns and labels:
Format in all cases: in vivo
Setaria viridis = test: Pre-emergence herbicidal action, SETVI; conditions: dosage 320 g/ha, scored visually after 3 weeks vs untreated controls (100% = plants have died)
Outline: (§1)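 Seeds were covered with sandy loam soil, then received a pre-emergence surface spray of the WP- or EC-formulated compound. After 3 weeks under good greenhouse growth conditions, damage was scored visually in percent.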

Pharbitis purpurea = test: Post-emergence herbicidal action, PHBPU
Outline: (§2)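 One-leaf-stage weeds, raised from seed in greenhouse sandy loam, received a single foliar spray of compound as wettable powder or emulsion concentrate with 0.2% wetting agent added. Growth continued under optimal conditions for about 3 weeks before percent damage was scored by eye against controls.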

Veronica persica [1] = test: Post-emergence herbicidal action, VERPE; parameters: key: % herbicidal action vs untreated; 100 = plants died, 0 = like control
Outline: as §2

Avena fatua = test: Post-emergence herbicidal action, AVEFA; parameters: key: % herbicidal action vs untreated; 100 = plants died, 0 = like control
Outline: as §2

Veronica persica [2] = test: Pre-emergence herbicidal action, VERPE; conditions: dosage 320 g/ha; for herbicidal activity VERPE: scored visually after 3 weeks vs untreated controls (100% = plants have died)
Outline: as §1

Amaranthus retroflexus = test: Pre-emergence herbicidal action, AMARE; conditions: dosage 320 g/ha; for herbicidal activity AMARE: scored visually after 3 weeks vs untreated controls (100% = plants have died)
Outline: as §1

[3] = comparative experiment, post-emergence, 5 g of a.i./ha

SMILES	herbicidal activity SETVI (Setaria viridis)	herbicidal action PHBPU (Pharbitis purpurea; post-emergence, dosage 80 g/ha)	Herbicidal action against VERPE (Veronica persica [1]; [3])	herbicidal action VERPE (Veronica persica [1]; post-emergence, dosage 80 g/ha)	Herbicidal action against AVEFA (Avena fatua; [3])	herbicidal action AVEFA (Avena fatua; post-emergence, dosage 80 g/ha)	herbicidal activity VERPE (Veronica persica [2])	herbicidal activity AMARE (Amaranthus retroflexus)	herbicidal action PHBPU (Pharbitis purpurea; Dosage 80 g/ha)	Herbicidal action against PHBPU (Pharbitis purpurea; post-emergence, dosage 80 g/ha)	herbicidal action VERPE (Veronica persica [1]; Dosage 80 g/ha)	Herbicidal action against VERPE (Veronica persica [1]; post-emergence, dosage 80 g/ha)	herbicidal action AVEFA (Avena fatua; Dosage 80 g/ha)	herbicidal action VERPE (Veronica persica [2])	herbicidal action AMARE (Amaranthus retroflexus)
Cn1nnnc1NC(=O)c1ccc(C(F)(F)F)c(CS(C)(=O)=O)c1Cl [Example 1-298]	100%	100%	90	100%	60	100%	100%	100%	–	–	–	–	–	–	–
CCSCc1c(C(F)(F)F)ccc(C(=O)Nc2nnnn2CC)c1Br [Example 2-383]	100%	90%	–	100%	–	100%	100%	100%	–	–	–	–	–	–	–
COc1c(C(=O)Nc2nnnn2C)ccc(C(F)(F)F)c1CSC [Example 1-134]	100%	–	100	–	–	–	100%	100%	100	90	100	100	90	–	–
CCCn1nnnc1NC(=O)c1ccc(C(F)(F)F)c(CSCC)c1Cl [Example 3-299]	100%	–	–	–	–	–	100%	100%	90	–	100	–	80	–	–
CSCc1c(C(F)(F)F)ccc(C(=O)Nc2nnnn2C)c1Cl [Example 1-296]	100%	100%	–	100%	–	90%	100%	100%	–	–	–	–	–	–	–
CCCn1nnnc1NC(=O)c1ccc(C(F)(F)F)c(CS(=O)(=O)CC)c1C [Example 3-88]	100%	–	–	–	–	–	100%	100%	90	–	90	–	80	–	–
CCn1nnnc1NC(=O)c1ccc(C(F)(F)F)c(CS(C)(=O)=O)c1SC [Example 2-163]	100%	–	–	–	–	–	100%	100%	90	–	100	–	100	–	–
CCCn1nnnc1NC(=O)c1ccc(C(F)(F)F)c(CSC)c1Cl [Example 3-296]	100%	–	–	–	–	–	100%	100%	90	–	100	–	90	–	–
CCCn1nnnc1NC(=O)c1ccc(C(F)F)c(C[S+]([O-])CC)c1Cl (centres unmarked) [Example 3-324]	100%	–	–	–	–	–	–	100%	100	–	–	–	100	–	–
Cn1nnnc1NC(=O)c1ccc(C(F)(F)F)c(C[S+](C)[O-])c1F (centres unmarked) [Example 1-243]	100%	–	–	–	–	–	100%	100%	100	–	100	–	80	–	–
CCn1nnnc1NC(=O)c1ccc(C(F)(F)F)c(C[S+](C)[O-])c1Br (centres unmarked) [Example 2-381]	100%	100%	–	100%	–	100%	100%	100%	–	–	–	–	–	–	–
Cn1nnnc1NC(=O)c1ccc(Cl)c(CS(C)(=O)=O)c1Cl [Example 1-561]	100%	–	–	–	–	–	90%	100%	100	–	100	–	90	–	–
CCSCc1c(C(F)(F)F)ccc(C(=O)Nc2nnnn2C)c1C [Example 1-86]	100%	90%	–	90%	–	100%	100%	100%	–	–	–	–	–	–	–
CCn1nnnc1NC(=O)c1ccc(C(F)(F)F)c(CSC)c1Br [Example 2-380]	100%	90%	–	100%	–	100%	100%	100%	–	–	–	–	–	–	–
CSCc1c(C(F)(F)F)ccc(C(=O)Nc2nnnn2C)c1SC [Example 1-161]	100%	–	–	–	–	–	100%	100%	90	–	100	–	100	–	–
CSCc1c(C(F)(F)F)ccc(C(=O)Nc2nnnn2C)c1Br [Example 1-380]	100%	90%	–	100%	–	100%	100%	100%	–	–	–	–	–	–	–
CCCn1nnnc1NC(=O)c1ccc(C(F)(F)F)c(CS(C)(=O)=O)c1OC [Example 3-136]	100%	–	–	–	–	–	100%	100%	90	–	100	–	–	–	–
Cc1c(C(=O)Nc2nnnn2C)ccc(C(F)F)c1CS(C)(=O)=O [Example 1-109]	100%	–	–	–	–	–	80%	100%	100	–	100	–	–	–	–
CCn1nnnc1NC(=O)c1ccc(C(F)(F)F)c(CS(C)(=O)=O)c1Br [Example 2-382]	100%	–	–	–	–	–	100%	100%	100	–	100	–	–	–	–
CCn1nnnc1NC(=O)c1ccc(C)c(CSC)c1Cl [Example 2-287]	90%	–	–	–	–	–	100%	100%	90	–	80	–	–	–	–
CCCn1nnnc1NC(=O)c1ccc(C(F)(F)F)c(CS(=O)(=O)CC)c1Br [Example 3-385]	100%	–	–	–	–	–	100%	100%	90	–	100	–	–	–	–
Cc1ccc(C(=O)Nc2nnnn2C)c(Cl)c1CS(C)(=O)=O [Example 1-289]	90%	–	–	–	–	–	100%	100%	90	–	100	–	–	–	–
Cn1nnnc1NC(=O)c1ccc(C(F)(F)F)c(CS(C)(=O)=O)c1F [Example 1-244]	100%	–	–	–	–	–	100%	100%	100	–	100	–	–	–	–
CCn1nnnc1NC(=O)c1ccc(S(C)(=O)=O)c(CS(C)(=O)=O)c1C [Example 2-39]	–	–	–	–	–	–	–	–	90	–	100	–	–	100%	100%
Cc1c(C(=O)Nc2nnnn2C)ccc(C(F)(F)F)c1C[S+](C)[O-] (centres unmarked) [Example 1-84]	100%	100%	–	100%	–	90%	100%	–	–	–	–	–	–	–	–
